Results as given in publication PMC7308192 (Journal of biomolecular structure & dynamics, 2019).
Several values for one entry are separate records, joined by “and”; a condition that tells them apart may be missing. Identical values can stand only once. Like-named read-outs stand apart in the source and are kept apart here.

T1: XLG2 (Arabidopsis thaliana, UniProt C6KIE6)
T1 sequence (C6KIE6 435-861): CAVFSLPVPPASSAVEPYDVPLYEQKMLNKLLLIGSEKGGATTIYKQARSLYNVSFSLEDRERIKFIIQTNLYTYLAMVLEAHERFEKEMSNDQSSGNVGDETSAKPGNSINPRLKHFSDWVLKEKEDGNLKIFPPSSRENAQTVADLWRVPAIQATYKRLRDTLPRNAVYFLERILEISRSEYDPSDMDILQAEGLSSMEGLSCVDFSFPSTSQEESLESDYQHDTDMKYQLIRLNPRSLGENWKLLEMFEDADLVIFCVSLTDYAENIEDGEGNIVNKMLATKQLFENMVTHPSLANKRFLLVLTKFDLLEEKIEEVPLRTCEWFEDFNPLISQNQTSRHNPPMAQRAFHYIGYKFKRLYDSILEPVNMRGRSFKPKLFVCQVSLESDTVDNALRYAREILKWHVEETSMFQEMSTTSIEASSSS

T2: AtGPA1 (Arabidopsis thaliana, UniProt P18064)
T2 sequence (P18064 1-383): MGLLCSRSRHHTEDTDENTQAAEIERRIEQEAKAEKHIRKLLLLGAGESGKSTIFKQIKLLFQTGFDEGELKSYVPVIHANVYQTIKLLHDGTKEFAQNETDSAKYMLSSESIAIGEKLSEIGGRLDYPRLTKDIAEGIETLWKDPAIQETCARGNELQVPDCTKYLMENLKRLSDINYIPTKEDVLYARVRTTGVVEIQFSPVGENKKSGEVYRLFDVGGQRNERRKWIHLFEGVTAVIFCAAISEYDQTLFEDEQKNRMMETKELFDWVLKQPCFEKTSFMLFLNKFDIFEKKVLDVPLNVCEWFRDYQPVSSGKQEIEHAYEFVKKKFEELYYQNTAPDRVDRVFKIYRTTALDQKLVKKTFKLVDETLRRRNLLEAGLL

T3: Arabidopsis Gβγ dimer (AGB1/AGG1) (Arabidopsis, UniProt P49177 1-377; Q9FDX9 1-98)
T3 sequence (looked up) 1: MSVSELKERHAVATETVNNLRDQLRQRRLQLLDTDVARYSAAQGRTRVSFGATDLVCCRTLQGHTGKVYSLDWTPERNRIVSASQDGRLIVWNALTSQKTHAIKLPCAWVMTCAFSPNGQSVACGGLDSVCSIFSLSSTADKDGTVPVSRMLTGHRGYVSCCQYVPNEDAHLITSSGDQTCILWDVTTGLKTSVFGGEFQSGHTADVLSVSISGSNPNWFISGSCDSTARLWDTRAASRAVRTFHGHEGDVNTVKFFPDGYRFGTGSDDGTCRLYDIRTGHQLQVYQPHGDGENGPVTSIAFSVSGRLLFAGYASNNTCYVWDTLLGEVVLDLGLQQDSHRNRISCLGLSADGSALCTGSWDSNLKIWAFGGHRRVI
T3 sequence (looked up) 2: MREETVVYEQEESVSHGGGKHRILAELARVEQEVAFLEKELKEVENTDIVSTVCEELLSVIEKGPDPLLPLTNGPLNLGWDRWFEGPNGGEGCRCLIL

B1: Twinstrep-AtGPA1 (natural protein, Arabidopsis, UniProt P18064 1-383, looked up)
chain: T2 sequence (P18064 1-383)
B2: Gβγ: Arabidopsis Gβγ dimer (AGB1/AGG1), His tagged, expressed in Sf9 cells (protein)
chain 1: T3 sequence (looked up) 1
chain 2: T3 sequence (looked up) 2
modifications: left off: His6, N-terminal, state not stated | His6, end not stated, state not stated
B3: XLG2 C terminal Gα domain (residues from 435 to 861) (domain or fragment, Arabidopsis, UniProt C6KIE6 435-861, looked up)
chain: T1 sequence (C6KIE6 435-861)
B4: RGS+Ct (AtRGS1, residues from 284 to 459) (domain or fragment, Arabidopsis, UniProt Q8H1F2 284-459, looked up)
chain: KEEFRPVDPNEPLDKLLLNKRFRHSFMEFADSCYAGETLHFFEEVYEHGKIPEDDSIRRIYMARHIMEKFIVAGAEMELNLSHKTRQEILTTQDLTHTDLFKNALNEVMQLIKMNLVRDYWSSIYFIKFKEEESCHEAMHKEGYSFSSPRLSSVQGSDDPFYQEHMSKSSRCSSPG
B5: RGS1-C domain: recombinant C-terminal RGS domain of Arabidopsis AtRGS1, residues from 284 to 459 (protein)
chain: B4 chain
modifications: left off: His, end not stated, cleaved | GST, end not stated, cleaved

What was measured:
XLG2 = target: T1, XLG2; experiment: Microscale thermophoresis; type: binding
AtGPA1 [1] = target: T2, AtGPA1; experiment: Microscale thermophoresis; type: binding
AtGPA1 [2] = target: T2, AtGPA1; conditions: read-out: Kd for GTPγS binding to AtGPA1 using a radioactive ligand, ref Johnston, Willard, Kimple, Siderovski, 2008; cited from earlier work
animal G subunits = conditions: read-out: range of Kds reported for animal G subunits; ref Malinski, Zera, Angleson, & Wensel, 1996; cited from earlier work
[3] = target: T3, Arabidopsis Gβγ dimer (AGB1/AGG1); experiment: MST
[4] = target: B3; experiment: MST
Twinstrep-AtGPA1 [5] = target: B1; experiment: MST
Twinstrep-AtGPA1 [6] = target: B1; experiment: MST; remark: listed apart in the source
[7] = Kd, nucleotide binding to XLG2, MST, 25°C, in the presence of Mg2+
[8] = Kd, nucleotide binding to XLG2 in the presence of Ca2+, MST, Ca2+ instead of Mg2+
[9] = Kd, nucleotide binding to AtGPA1, MST, 25°C, polyHis-tagged AtGPA1

Molecule: Nc1nc2c(ncn2[C@@H]2O[C@H](COP(=O)(O)OP(=O)(O)O)[C@@H](O)[C@H]2O)c(=O)[nH]1 [GDP, guanosine diphosphate]
affinity of XLG2 lower than of AtGPA1 (XLG2; Kd XLG2 vs AtGPA1): ~ 6 fold
Kd (XLG2; [7]): 177000 ± 33000 nM
Kd (XLG2; [8]): ~28000 nM
Kd (AtGPA1 [1]; [9]): 28000 ± 12000 nM

Molecule: Nc1nc2c(ncn2[C@@H]2O[C@H](COP(=O)(O)OP(=O)(O)OP(O)(O)=S)[C@@H](O)[C@H]2O)c(=O)[nH]1 [GTPγS]
Kd (AtGPA1 [2]): ~2 nM
Kd (animal G subunits): 10 to 100 nM
affinity of XLG2 lower than that of AtGPA1 / canonical Gα subunits (XLG2; Kd XLG2 vs AtGPA1, same conditions): 100 times
Kd (XLG2; Kd, nucleotide binding to XLG2, MST, 25°C, Mg2+): 2350 ± 460 nM
Kd (XLG2; [7]): ~2000 nM
Kd (XLG2; [8]): ~186000 nM
Kd (AtGPA1 [1]; [9]): ~21 nM and 21 nM

Molecule: B1
Kd [3]: 2000 nM

Molecule: B2
Kd (XLG2; read-out: Kd, Gβγ binding to XLG2 Gα domain, MST, column head: Gα in GDP state): ~700 nM and 700 nM
Kd (AtGPA1 [1]; read-out: Kd, Gβγ binding to AtGPA1, Gα in GDP state, MST, Gα in GDP state): ~2000 nM and 2000 nM

Molecule: B3
Kd [3]: 700 nM

Molecule: B4
Kd [4]: 198 nM
Kd (Twinstrep-AtGPA1 [5]): 125 nM
Kd (Twinstrep-AtGPA1 [6]): 67 nM

Molecule: B5
affinity of XLG2 for RGS domain lower than AtGPA1 in its transition state (XLG2; XLG2 vs AtGPA1 in transition state): about 2 times
